According to patent US20250332112A1, “IONIZABLE CATIONIC LIPIDS FOR LIPID NANOPARTICLES” (GENEVANT SCIENCES GMBH, priority 2022, published 2025):
Each block holds one compound with its values, some of them ahead of it.

Assays:
[1] = Parent ionizable lipid remaining in liver at 6 h after luciferase mRNA LNP (LC-MS); type: in vivo; settings: 6 h after IV 0.5 mg/kg Luciferase mRNA LNP
Experimental: Liver tissues were treated with PBS and homogenized with a FastPrep machine, 3 cycles of 5 m/s×15 s. Homogenates from the PBS-treated control animals was pooled and used for standard curve preparation. Samples were extracted into a deep well plate with 250 μL of an internal suitability standard. Plates were centrifuged for 15 min at 4° C. and 2000 rpm. Analysis was performed using an Agilent 6520 QTOF coupled to an Agilent 1290 UHPLC, using reverse-phase LC separation. Quantitation of the ionizable lipid was by MS/MS against a calibration curve spiked into appropriately matched blank matrix. Calibration used a similar class of synthetic lipid as internal standard.
At 6 h post-dose, some treatment groups reported lower levels of novel ionizable lipid in mouse liver compared to the benchmark (Tables 16-18).

[2] = Particle characteristics of LNPs containing luciferase mRNA and novel ionizable lipids; type: physicochemical
Experimental: The lipid solution contains 4 components: a PEG-conjugated lipid, an ionizable lipid, cholesterol, and a phospholipid (e.g., DSPC). Lipid stocks were prepared using the lipid identities and molar ratios as described, to achieve a total concentration of ˜7 mg/mL in 100% ethanol. Firefly luciferase mRNA (TriLink Biotechnologies, L-7202) or ornithine transcarbamylase (OTC) mRNA (TriLink Biotechnologies, custom designed) was diluted in acetate, pH 5 buffer and nuclease free water to achieve a target concentration of 0.366 mg/mL mRNA in 100 mM acetate, pH 5. Equal volumes of the lipid and nucleic acid solutions were blended at a flow rate of 400 mL/min through a T-connector, and diluted with ˜4 volumes of PBS, pH 7.4. Formulations were placed in Slide-A-Lyzer dialysis units (MWCO 10,000) and dialyzed overnight against 10 mM Tris, 500 mM NaCl, pH 8 buffer. Following dialysis, the formulations were concentrated to ˜0.6 mg/mL using VivaSpin concentrator units (MWCO 100,000) and dialyzed overnight against 5 mM Tris, 10% sucrose, pH 8 buffer. Formulations were filtered through a 0.2 μm syringe filter (PES membrane). Nucleic acid concentration was determined by the RiboGreen assay. Particle size and polydispersity were determined using a Malvern Nano Series Zetasizer.
LNP formulations containing novel ionizable lipids all produced stable particles with high encapsulation efficiency (Tables 1-7).

[3] = tested on: luciferase activity in the liver; test: Luciferase activity in liver after intravenous luciferase mRNA LNP; type: in vivo; settings: 0.5 mg/kg IV, 6 h post-IV administration, BALB/c mice (n = 4)
Experimental: Frozen aliquots of liver were thawed and homogenized in 1 mL of 1×CCLR (Cell Culture Lysis Reagent) using a FastPrep® homogenizer. The homogenate was then centrifuged at 16,000 RPM for 10 minutes at 4° C. Twenty (20) μL of the supernatant was loaded into a 96-well white plate and luminescence measured following addition of luciferase reagent (Promega Luciferase Assay System). Luciferase activity was determined by comparing luminescence of the homogenized samples to luciferase protein standards. To account for any quenching of luminescence by components in the liver homogenate, luciferase was added to the liver homogenates of untreated animals and the resulting luminescence measured. The resulting quench factor was applied to all samples to obtain the corrected luciferase activity, and normalized per unit mass of tissue analyzed.

[4] = Table 16, female BALB/c mice (n = 4)
[5] = Table 3, luciferase mRNA LNP 1.6:54.6:32.8:10.9
[6] = Table 6, luciferase mRNA LNP 1.6:54.6:32.8:10.9
[7] = Table 18, female BALB/c mice (n = 4)
[8] = Table 1, luciferase mRNA LNP 1.6:54.6:32.8:10.9
[9] = Table 1, luciferase mRNA LNP 1.6:54.6:32.8:10.9 PEG2000-C-DMA:Ionizable lipid:Cholesterol:DSPC
[10] = Table 2, luciferase mRNA LNP 1.6:54.6:32.8:10.9

SMILES: CCCCCCCCCCC(CCCCCC(=O)OCC(CCCCCC)CCCCCCCC)N(CCCCCCCCCC)C(=O)CCCCN(C)C (centres unmarked) [Compound 3, 2-Hexyldecyl 7-(N-decyl-5-(dimethylamino)pentanamido)heptadecanoate]
- Parent ionizable lipid remaining in liver, Average [1, 4]: 7.72 nmol/g liver
- Final Product % EE [2, 5]: 99%
- Final Product PDI [2, 5]: 0.05
- Final Product Z-avg [2, 5]: 91 nm
- Luc Activity ([3]; Table 10): 5.94E+07 pg/g liver

SMILES: CCCCCCCCCCC(CCCCCC(=O)OCC(CCCCCC)CCCCCCCC)N(CCCCCCCCCC)C(=O)CCCN(C)C (centres unmarked) [Compound 4, 2-Hexyldecyl 7-(N-decyl-4-(dimethylamino)butanamido)heptadecanoate]
- Parent ionizable lipid remaining in liver, Average [1, 4]: 18.97 nmol/g liver
- Final Product % EE [2, 5]: 99%
- Final Product PDI [2, 5]: 0.03
- Final Product Z-avg [2, 5]: 82 nm
- Luc Activity ([3]; Table 10): 7.84E+07 pg/g liver

SMILES: CCCCCCCCCCC(CCCCCCCC(=O)OC(CCCCCC)CCCCCC)N(CCCCCCCCCC)C(=O)CCCN(C)C (centres unmarked) [Compound 5, Tridecan-7-yl 9-(N-decyl-4-(dimethylamino)butanamido)nonadecanoate]
- Parent ionizable lipid remaining in liver, Average ([1]; Table 17, female mice (n = 4)): 49.53 nmol/g liver
- Final Product % EE [2, 6]: 99%
- Final Product PDI [2, 6]: 0.05
- Final Product Z-avg [2, 6]: 68 nm
- Luc Activity ([3]; Table 13): 9.49E+07 pg/g liver

SMILES: CCCCCCCCCCN(C(=O)CCCN(C)C)C(CCCCCCCCC)CCCCCCC(F)(F)C(=O)OCC(CCCCCC)CCCCCCCC (centres unmarked) [Compound 17, 2-Hexyldecyl 9-(N-decyl-4-(dimethylamino)butanamido)-2,2-difluorooctadecanoate]
- Parent ionizable lipid remaining in liver, Average ([1]; Table 17, female mice (n = 4)): 24.00 nmol/g liver
- Parent ionizable lipid remaining in liver, Average [1, 7]: 36.58 nmol/g liver
- Final Product % EE [2, 6]: 99%
- Final Product PDI [2, 6]: 0.10
- Final Product Z-avg [2, 6]: 68 nm
- Luc Activity ([3]; Table 13): 5.52E+07 pg/g liver

SMILES: CCCCCCCCCCON(C(=O)CCCCN(C)C)C(CCCCCCCCCC)CCCCCCC(=O)OCC(CCCCCC)CCCCCCCC (centres unmarked) [Compound 45]
- Parent ionizable lipid remaining in liver, Average ([1]; Table 17, female mice (n = 4)): 36.39 nmol/g liver
- Luc Activity ([3]; Table 13): 8.00E+07 pg/g liver

SMILES: CCCCCCCCCCC(CCCCCCC(=O)OCC(CCCCCC)CCCCCCCC)N(OCCCCCCCCC)C(=O)CCCN(C)C (centres unmarked) [Compound 46]
- Parent ionizable lipid remaining in liver, Average ([1]; Table 17, female mice (n = 4)): 47.63 nmol/g liver
- Luc Activity ([3]; Table 13): 1.08E+08 pg/g liver

- Final Product % EE [2, 8]: 96%
- Final Product PDI [2, 8]: 0.08
- Final Product Z-avg [2, 9]: 61 nm
SMILES: CCCCCCCCCC(CC(=O)OCC(CCCCCC)CCCCCCCC)N(CCCN(C)C)S(=O)(=O)CCCC (centres unmarked) [Compound 49, 2-Hexyldecyl 3-(N-(3-(dimethylamino)propyl)butylsulfonamido)dodecanoate]
- Luc Activity ([3]; Table 8): 8.36E+06 pg/g liver

SMILES: CCCCCCCCCCOC(=O)CC(CCCCCCCCC)N(CCCN(C)C)S(=O)(=O)CC(CCCCCC)CCCCCCCC (centres unmarked) [Compound 50, Decyl 3-{N-[3-(dimethylamino)propyl]2-hexyldecanesulfonamido}dodecanoate]
- Final Product % EE [2, 8]: 93%
- Final Product PDI [2, 8]: 0.07
- Final Product Z-avg [2, 9]: 61 nm
- Luc Activity ([3]; Table 8): 4.82E+06 pg/g liver

- Final Product % EE [2, 8]: 94%
- Final Product PDI [2, 8]: 0.09
- Final Product Z-avg [2, 9]: 62 nm
SMILES: CCCCCCCCCCCS(=O)(=O)N(CCCN(C)C)C(CCCCCCCCC)CC(=O)OCC(CCCCCC)CCCCCCCC (centres unmarked) [Compound 51, 2-hexyldecyl 3-{N-[3-(dimethylamino)propyl]undecane-1-sulfonamido}dodecanoate]
- Luc Activity ([3]; Table 8): 2.50E+07 pg/g liver

- Final Product % EE [2, 8]: 95%
- Final Product PDI [2, 8]: 0.05
- Final Product Z-avg [2, 9]: 72 nm
SMILES: CCCCC/C=C\CCCOC(=O)CC(CCCCCCCCC)N(CCCN(C)C)S(=O)(=O)CCCCCCCCCCC (centres unmarked) [Compound 52, (Z)-Dec-4-en-1-yl 3-(N-(3-(dimethylamino)propyl)undecylsulfonamido)dodecanoate]
- Luc Activity ([3]; Table 8): 5.65E+06 pg/g liver

- Final Product % EE [2, 10]: 97%
- Final Product PDI [2, 10]: (0.07)
- Final Product Z-avg [2, 10]: 106 nm
SMILES: CCCCCCCCCC(=O)N(CCCN(C)C)C(CCCCCCCCC)CC(=O)NN(CCCCCCCC)CCCCCCCC (centres unmarked) [Compound 53, N-[3-(dimethylamino)propyl]-N-[1-(N′,N′-dioctylhydrazinecarbonyl)undecan-2-yl]decanamide]
- Luc Activity ([3]; Table 9): 8.02E+06 pg/g liver

- Final Product % EE [2, 10]: 98%
- Final Product PDI [2, 10]: (0.17)
- Final Product Z-avg [2, 10]: 94 nm
SMILES: CCCCCCCCCC(=O)N(CCCN(C)C)C(CCCCCCCCC)CC(=O)NN=C(CCCCCCCC)CCCCCCCC (centres unmarked) [Compound 55, N-[3-(dimethylamino)propyl]-N-{1-[N′-(heptadecan-9-ylidene)hydrazinecarbonyl]undecan-2-yl}decanamide]
- Luc Activity ([3]; Table 9): 1.22E+06 pg/g liver

- Final Product % EE [2, 10]: 96%
- Final Product PDI [2, 10]: (0.10)
- Final Product Z-avg [2, 10]: 97 nm
SMILES: CCCCC/C=C\CCCC(CCC/C=C\CCCCC)=NNC(=O)CC(CCCCCCCCC)N(CCCN(C)C)C(=O)CCCCCCCCC (centres unmarked) [Compound 56, N-(3-(Dimethylamino)propyl)-N-(1-(2-((6Z,15Z)-henicosa-6,15-dien-11-ylidene)hydrazineyl)-1-oxododecan-3-yl)decanamide]
- Luc Activity ([3]; Table 9): 9.00E+06 pg/g liver

- Final Product % EE [2, 10]: 99%
- Final Product PDI [2, 10]: (0.13)
- Final Product Z-avg [2, 10]: 81 nm
SMILES: CCCCCCCCCC(=O)N(CCCN(C)C)C(CCCCCCCCC)CC(=O)NNC(CCCCCCCC)CCCCCCCC (centres unmarked) [Compound 58, N-[3-(dimethylamino)propyl]-N-{1-[N′-(heptadecan-9-yl)hydrazinecarbonyl]undecan-2-yl}decanamide]
- Luc Activity ([3]; Table 9): 3.11E+05 pg/g liver

SMILES: CCCCCCCCCCC(CCCCCCC(=O)OCCC(CCCCC)CCCCC)N(CCCCCCCC(=O)OCc1cc(CCCCCC)cc(CCCCCC)c1)C(=O)CCCN(C)C (centres unmarked) [Compound 66]
- Parent ionizable lipid remaining in liver, Average [1, 7]: 34.35 nmol/g liver
- Luc Activity ([3]; Table 14): 2.00E+07 pg/g liver

SMILES: CCCCCCCCCCC(CCCCCCC(=O)OCCC(CCCCCC)CCCCCC)N(CCCCCCCC(=O)OCCC(CCCCCC)CCCCCC)C(=O)CCCN(C)C (centres unmarked) [Compound 69]
- Parent ionizable lipid remaining in liver, Average ([1]; Table 17, female mice (n = 4)): 50.57 nmol/g liver
- Luc Activity ([3]; Table 13): 4.10E+07 pg/g liver

SMILES: CCCCCCCCCCC(CCCCCCC(=O)OCCC(CCCCCCC)CCCCCCC)N(CCCCCCCC(=O)OCCC(CCCCCCC)CCCCCCC)C(=O)CCCN(C)C (centres unmarked) [Compound 71]
- Parent ionizable lipid remaining in liver, Average ([1]; Table 17, female mice (n = 4)): 27.52 nmol/g liver
- Luc Activity ([3]; Table 13): 4.58E+07 pg/g liver

SMILES: CCCCCCCCCCC(CCCCCCC(=O)OCCC(CCCCC)CCCCC)N(CCCCCCCCC(=O)OCCC(CCCCC)CCCCC)C(=O)CCCCN(C)C (centres unmarked) [Compound 75]
- Parent ionizable lipid remaining in liver, Average [1, 7]: 20.44 nmol/g liver
- Luc Activity ([3]; Table 14): 2.58E+07 pg/g liver

SMILES: CCCCCCCCCCC(CCCCCCC(=O)OCC(CCCCCC)CCCCCCCC)N(CCCN(C)C)C(=O)CCCCCCC(=O)OCCC(CCCCCC)CCCCCC (centres unmarked) [Compound 84]
- Parent ionizable lipid remaining in liver, Average ([1]; Table 17, female mice (n = 4)): 38.96 nmol/g liver
- Luc Activity ([3]; Table 13): 6.26E+07 pg/g liver

SMILES: CCCCCCCCCCC(CCCCCCC(=O)OCC(CCCCCC)CCCCCCCC)N(CCCN(C)C)C(=O)CCCCCCC(=O)OCCC(CCCCCCC)CCCCCCC (centres unmarked) [Compound 85]
- Parent ionizable lipid remaining in liver, Average ([1]; Table 17, female mice (n = 4)): 37.66 nmol/g liver
- Luc Activity ([3]; Table 13): 4.79E+07 pg/g liver

SMILES: CCCCCCCCCCC(CCCCCCC(=O)OCCC(CCCCC)CCCCC)N(CCCCCC(F)C(=O)OCCC(CCCCC)CCCCC)C(=O)CCCN(C)C (centres unmarked) [Compound 86]
- Parent ionizable lipid remaining in liver, Average [1, 7]: 12.79 nmol/g liver
- Luc Activity ([3]; Table 14): 1.21E+07 pg/g liver
